According to patent US7022707B2, “Piperazine derivatives” (Hoffman-La Roche Inc., priority 2000, dated 2006):
Structures can show the parent of a compound that is named as a salt. Where two headings read alike, the source gives them in different places.

What was measured:
[1] = molecular target: T1, 5-HT2C receptor (Homo sapiens, UniProt P28335); assay: Functional activity, FLIPR calcium assay, CHO cells expressing human 5-HT2C; type: cell-based; set-up: expressed in transfected cells; host or cells: CHO cells; conditions: for h5-HT2c Relative Efficacy: maximum fluorescent signal relative to 10 μM 5-HT (defined as 100%)
T1 sequence (P28335 33-458): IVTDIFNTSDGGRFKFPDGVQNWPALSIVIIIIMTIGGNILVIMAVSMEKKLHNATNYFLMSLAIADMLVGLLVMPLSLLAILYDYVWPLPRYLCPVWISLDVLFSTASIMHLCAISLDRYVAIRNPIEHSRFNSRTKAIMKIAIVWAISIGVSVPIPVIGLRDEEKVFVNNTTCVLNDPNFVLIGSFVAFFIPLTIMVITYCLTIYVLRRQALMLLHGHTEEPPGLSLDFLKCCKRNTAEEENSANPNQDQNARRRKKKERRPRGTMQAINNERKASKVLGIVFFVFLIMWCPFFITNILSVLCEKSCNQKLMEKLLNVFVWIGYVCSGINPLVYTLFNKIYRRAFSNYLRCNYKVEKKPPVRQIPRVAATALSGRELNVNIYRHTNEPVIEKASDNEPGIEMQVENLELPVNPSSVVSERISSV
Protocol: (§1) The functional activity of compounds of formula (I) was assayed using a Fluorimetric Imaging Pate reader (FLIPR). CHO cells expressing the human 5-HT2C or human 5-HT2A receptors were counted and plated into standard 96 well microtitre plates on the day before testing to give a confluent monolayer. The cells were then dye loaded with the calcium sensitive dye, Fluo-3-AM. Unincorporated dye was removed using an automated cell washer to leave a total volume of 100 μL/well of assay buffer (Hanks balanced salt solution containing 20 mM Hepes and 2.5 mM probenecid). The drug (dissolved in 50 µL of the assay buffer) was added at a rate of 70 μL/sec to each well of the FLIPR 96 well plate during fluorescence measurements. The measurements were taken at 1 sec intervals and the maximum fluorescent signal was measured (approx 10–15 secs after drug addition) and compared with the response produced by 10 μM 5-HT (defined as 100%) to which it was expressed as a percentage response (relative efficacy). Dose response curves were constructed using Graphpad Prism (Graph Software Inc.).

[2] = molecular target: T1, 5-HT2C receptor; assay: Binding to 5-HT2C receptor, [3H]-5-HT, Method (a); set-up: expressed in transfected cells; host or cells: CHO cell line
Protocol: (§2) The binding of compounds of formula (I) to serotonin receptors was determined in vitro by standard methods. The preparations were investigated in accordance with the assays given below.
Method (a): For the binding to the 5-HT2C receptor, the 5-HT2C receptors were radiolabeled with [^3H]-5-HT. The affinity of the compounds for 5-HT2C receptors in a CHO cell line was determined according to the procedure of D. Hoyer, G. Engel and H. O. Kalkman, European J. Pharmacol., 1985, 118, 13–23.
(§3) The Ki value is definied as an inhibition constance and is determined from the IC50 value as described in Cheng, Yung-Chi and Prusoff, W. H., Biochem. Pharmacol., 1973, 22(23), 3099–108.

[3] = molecular target: T2, 5-HT2A receptor (Homo sapiens, UniProt P28223); assay: Binding to 5-HT2A receptor, [125I]-DOI, Method (c); set-up: expressed in transfected cells; host or cells: CHO cell line
Protocol: as §2
Method (c): For the binding to the 5-HT2A receptor, the 5-HT2A receptors were radiolabeled with [^125I]-DOI. The affinity of the compounds for 5-HT2A receptors in a CHO cell line was determined according to the procedure of D. J. McKenna and S. J. Peroutka, J. Neurosci., 1989, 9, 3482–90.
as §3

[4] = molecular target: T2, 5-HT2A receptor; assay: Functional activity, FLIPR calcium assay, CHO cells expressing human 5-HT2A; type: cell-based; set-up: expressed in transfected cells; host or cells: CHO cells; conditions: for h5-HT2A Relative Efficacy: maximum fluorescent signal relative to 10 μM 5-HT (defined as 100%)
Protocol: as §1

[5] = molecular target: T3, human 5-HT2B receptors (Homo sapiens, UniProt P41595); assay: Binding to 5-HT2B receptor, [3H]-5-HT, Method (b)
T3 construct: expressed in transfected cells; host or cells: CHO cell line
Protocol: as §2
Method (b): For the binding to the 5-HT2B receptor, the 5-HT2B receptors were radiolabeled with [^3H]-5-HT. The affinity of the compounds for human 5-HT2B receptors in a CHO cell line was determined according to the procedure of K. Schmuck, C. Ullmer, P. Engels and H. Lubbert, FEBS Lett., 1994, 342, 85–90.
as §3

[6] = system: rats; conditions: literature; cited from earlier work
[7] = system: human volunteers and obese subjects; conditions: literature, cited from earlier work
[8] = FLIPR, CHO cells, Fluo-3-AM, read-out: h5-HT2c EC50
[9] = Method (a), [3H]-5-HT, CHO cell line, Ki calculated from IC50 (Cheng-Prusoff), read-out: Ki (2C)
[10] = Method (c), [125I]-DOI, CHO cell line, Ki calculated from IC50, read-out: Ki (2A)
[11] = FLIPR, CHO cells, Fluo-3-AM, read-out: h5-HT2A EC50
[12] = Method (b), [3H]-5-HT, human 5-HT2B in CHO cell line, Ki calculated from IC50, read-out: Ki (2B)

T3 sequence (P41595 whole entry): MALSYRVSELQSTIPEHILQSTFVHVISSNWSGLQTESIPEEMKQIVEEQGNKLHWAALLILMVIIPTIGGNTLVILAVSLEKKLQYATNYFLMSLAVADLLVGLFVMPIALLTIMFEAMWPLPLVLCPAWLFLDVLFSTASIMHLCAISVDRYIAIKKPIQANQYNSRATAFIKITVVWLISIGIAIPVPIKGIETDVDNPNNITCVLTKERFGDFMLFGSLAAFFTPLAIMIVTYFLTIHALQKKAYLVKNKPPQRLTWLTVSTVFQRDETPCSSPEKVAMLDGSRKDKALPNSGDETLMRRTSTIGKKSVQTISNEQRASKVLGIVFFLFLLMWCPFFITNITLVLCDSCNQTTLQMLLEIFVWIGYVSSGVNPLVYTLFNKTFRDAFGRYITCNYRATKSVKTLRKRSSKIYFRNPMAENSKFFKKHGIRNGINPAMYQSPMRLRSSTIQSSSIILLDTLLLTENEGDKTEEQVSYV
T2 sequence (P28223 whole entry): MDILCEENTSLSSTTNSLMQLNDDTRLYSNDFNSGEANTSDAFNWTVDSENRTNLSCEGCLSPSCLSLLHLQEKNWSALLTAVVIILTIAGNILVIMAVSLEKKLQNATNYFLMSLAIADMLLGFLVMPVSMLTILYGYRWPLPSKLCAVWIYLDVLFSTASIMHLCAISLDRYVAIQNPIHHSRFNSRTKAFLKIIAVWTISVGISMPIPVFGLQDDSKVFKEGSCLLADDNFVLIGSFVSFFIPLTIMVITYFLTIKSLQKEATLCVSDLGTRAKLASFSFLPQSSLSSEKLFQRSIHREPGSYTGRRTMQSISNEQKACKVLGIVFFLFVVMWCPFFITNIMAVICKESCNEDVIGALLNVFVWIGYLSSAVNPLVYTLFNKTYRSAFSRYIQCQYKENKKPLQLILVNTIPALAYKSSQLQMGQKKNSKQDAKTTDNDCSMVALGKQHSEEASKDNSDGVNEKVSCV

Compound `CCCOc1cc(F)c(COC(=O)N2CCNC[C@H]2C)c(F)c1.O=C(O)/C=C/C(=O)O` has a melting point of 193.9 to 194 °C.

With `Cl.O=C(OCc1ccc(OC(F)F)cc1)N1CCNCC1` [Example 22, Piperazine-1-carboxylic acid 4-difluoromethoxy-benzyl ester hydrochloride] the EC50 [1, 8] was 100 nM, the “h5-HT2c Relative Efficacy” value [1] was 56% and the Ki [2, 9] was 44 nM. For the same compound, the Ki [3, 10] was 44 nM, the EC50 [4, 11] was 220 nM and the “h5-HT2A Relative Efficacy” value [4] was 24%. The Ki [5, 12] was 4 µM.

With `CCCCOc1ccc(F)c(COC(=O)N2CCNC[C@H]2C)c1.O=C(O)/C=C/C(=O)O` the melting point was 171.6 to 171.7 °C.

For `CCCOc1cc(F)c(COC(=O)N2CCNCC2CC)c(F)c1.O=C(O)/C=C/C(=O)O` (racemic), the melting point was 145 to 165 °C (dec.).

With `C[C@@H]1CNCCN1C(=O)OCc1ccc(OC(F)F)cc1.O=C(O)/C=C/C(=O)O` the melting point was 123.9 to 124.5 °C.

Work on `CCCCOc1ccc(F)c(COC(=O)N2CCNCC2)c1.O=C(O)/C=C/C(=O)O` yielded a melting point of 142.4 to 143.5 °C.

In the case of `C[C@@H]1CNC[C@H](C)N1C(=O)OCc1c(F)ccc(Br)c1F.Cl`, the melting point is reported as 207 to 210 °C.

In the case of `CC(C)NC(=O)Oc1ccc(CSC(=O)N2CCNCC2)cc1` [Example 63, S-4-[(2-Propylamino)carbonyl]oxybenzyl piperazine-1-thiocarboxylate hydrochloride], the EC50 [1] is reported as 33 nM, the “h5-HT2c Relative Efficacy” value [1] is reported as 74% and the Ki [2] is reported as 33 nM. The Ki [3] was 550 nM, the EC50 [4] was 370 nM and the “h5-HT2A Relative Efficacy” value [4] was 25%. For the same compound, the Ki [5] was 8.3 µM.

With `CC(C)COc1ccc(F)c(COC(=O)N2[C@H](C)CNC[C@@H]2C)c1.O=C(O)/C=C/C(=O)O` the melting point was 178.6 to 178.7 °C.

`Cl.O=C(SCc1ccc(OCc2ccc(F)cc2)cc1)N1CCNCC1` showed a melting point of 169 to 169.5 °C.

With `CCOc1ccc(F)c(COC(=O)N2[C@H](C)CNC[C@@H]2C)c1.O=C(O)/C=C/C(=O)O` the melting point was 142.9 to 143.3 °C.

In the case of `Cc1noc(C)c1COc1cc(F)c(COC(=O)N2[C@H](C)CNC[C@@H]2C)c(F)c1` [Example 121, cis-2,6-Dimethyl-piperazine-1-carboxylic acid 4-(3,5-dimethyl-isoxazol-4-ylmethoxy)-2,6-difluoro-benzyl esterfumarate], the EC50 [1, 8] is reported as 22 nM, the “h5-HT2c Relative Efficacy” value [1] is reported as 91% and the Ki [2, 9] is reported as 15 nM. The Ki [3, 10] was 200 nM, the EC50 [4, 11] was 550 nM and the “h5-HT2A Relative Efficacy” value [4] was 11%. For the same compound, the Ki [5, 12] was 8.4 µM.

In the case of `CCCCOc1ccc(F)c(COC(=O)N2[C@H](C)CNC[C@@H]2C)c1.O=C(O)/C=C/C(=O)O`, the melting point is reported as 153.2 to 153.5 °C.

For `Clc1cccc(N2CCNCC2)c1` [mCPP, m-chlorophenylpiperazine], the “food intake in rats” value [6] is listed as “reduce food intake”, the “appetite and body weight” value ([7]; obese male and female subjects, subchronic treatment for a 14 day period) is listed as “decreased the appetite and body weight” and the food intake ([7]; single dose, female volunteers) is listed as “decreased food intake”.

In the case of `Cl.O=C(OCc1ccc(Br)cc1F)N1CCNCC1`, the melting point is reported as 209.5 to 209.6 °C.

With `Cl.O=C(SCc1ccc(OCc2ccccc2)cc1)N1CCNCC1` [Example 32, Piperazine-1-carbothioic acid S-(4-benzyloxy-benzyl) ester hydrochloride] the EC50 [1, 8] was 38 nM, the “h5-HT2c Relative Efficacy” value [1] was 65% and the Ki [2, 9] was 15 nM. The Ki [3, 10] was 6 nM, the EC50 [4, 11] was 560 nM and the “h5-HT2A Relative Efficacy” value [4] was 22%. The Ki [5, 12] was 0.37 µM.

`CCCOc1ccc(F)c(COC(=O)N2CCNC[C@H]2C)c1.O=C(O)/C=C/C(=O)O` showed a melting point of 162.6 to 162.7 °C.

Work on `CCCOc1ccc(F)c(COC(=O)N2CCNCC2)c1.O=C(O)/C=C/C(=O)O` yielded a melting point of 155.9 to 156.1 °C.
